Reference: ChEMBL document CHEMBL3885861, “Open TG-GATES”

Species: Rattus norvegicus
Test: Open TG-GATES - Regimen: Daily Repeat
Assay type: toxicity, organism-based, Sprague-Dawley
Parameters: regimen Daily Repeat, gender Male, age 6 weeks
Details: in vivo, po, 100 mg/kg, route gavage, dose level High; for APTT / Bas / Eos / Fbg / Hb / Ht / Lym / MCH / MCHC / MCV / Mono / Neu / PT / Plat / RBC / Ret / WBC: tissue Blood; for KIDNEY_L / KIDNEY_R / KIDNEY_TOTAL: tissue Kidney; for LIVER: tissue Liver; for A/G / ALP / ALT / AST / BUN / CRE / Ca / Cl / DBIL / GLC / IP / K / LDH / Na / PL / RALB / TBIL / TC / TG / TP / gamma-GTP: tissue Plasma

## OCCOCCN1CCN(C(c2ccccc2)c2ccc(Cl)cc2)CC1 (configuration not stated) [HYDROXYZINE]
72 h, time 3 day
  TERMINAL_BW: 215.1 g
  APTT: 17.1 s
  Bas: 0%
  Eos: 0.8%
  Fbg: 297 mg/dL
  Hb: 13.6 g/dL
  Ht: 40.5%
  Lym: 73.4%
  MCH: 20.9 pg
  MCHC: 33.5%
  MCV: 62.5 fL
  Mono: 3.2%
  Neu: 21.8%
  PT: 15.7 s
  Plat: 128.8 x10_4/uL
  RBC: 648.2 x10_4/ul
  Ret: 5.3%
  WBC: 97.2 x10_2/uL
  KIDNEY_L: 1 g
  KIDNEY_R: 1 g
  KIDNEY_TOTAL: 2 g
  LIVER: 11.2 g
  A/G: 0.8
  ALP: 2293.8 IU/L
  ALT: 42.6 IU/L
  AST: 72.8 IU/L
  BUN: 17.6 mg/dL
  CRE: 0.2 mg/dL
  Ca: 10.9 mg/dL
  Cl: 104.8 meq/L
  DBIL: 0.016 mg/dL
  GLC: 170.8 mg/dL
  IP: 7.8 mg/dL
  K: 3.9 meq/L
  LDH: 56.2 IU/L
  Na: 142.6 meq/L
  PL: 126.2 mg/dL
  RALB: 2.6 g/dL
  TBIL: 0.05 mg/dL
  TC: 67.8 mg/dL
  TG: 62.6 mg/dL
  TP: 5.6 g/dL
  gamma-GTP: 1 IU/L
[…], time 7 day
  TERMINAL_BW: 246 g
  APTT: 18 s
  Bas: 0%
  Eos: 0.8%
  Fbg: 297 mg/dL
  Hb: 13.6 g/dL
  Ht: 40.3%
  Lym: 81%
  MCH: 21 pg
  MCHC: 33.7%
  MCV: 62.3 fL
  Mono: 2.2%
  Neu: 15.4%
  PT: 15.5 s
  Plat: 109.3 x10_4/uL
  RBC: 647.2 x10_4/ul
  Ret: 4.6%
  WBC: 79.7 x10_2/uL
  KIDNEY_L: 1.1 g
  KIDNEY_R: 1.1 g
  KIDNEY_TOTAL: 2.2 g
  LIVER: 15.2 g
  A/G: 0.8
  ALP: 2036.8 IU/L
  ALT: 34 IU/L
  AST: 61.4 IU/L
  BUN: 18 mg/dL
  CRE: 0.2 mg/dL
  Ca: 11 mg/dL
  Cl: 104.6 meq/L
  DBIL: 0.018 mg/dL
  GLC: 186 mg/dL
  IP: 7.9 mg/dL
  K: 4.4 meq/L
  LDH: 62 IU/L
  Na: 141.6 meq/L
  PL: 138.2 mg/dL
  RALB: 2.6 g/dL
  TBIL: 0.046 mg/dL
  TC: 76.8 mg/dL
  TG: 55 mg/dL
  TP: 5.8 g/dL
  gamma-GTP: 0.8 IU/L
[…], time 14 day
  TERMINAL_BW: 300.3 g
  APTT: 18.5 s
  Bas: 0.4%
  Eos: 1%
  Fbg: 300.4 mg/dL
  Hb: 13.7 g/dL
  Ht: 40.2%
  Lym: 78%
  MCH: 20 pg
  MCHC: 34.2%
  MCV: 58.5 fL
  Mono: 3%
  Neu: 16.6%
  PT: 16.2 s
  Plat: 124.9 x10_4/uL
  RBC: 686.4 x10_4/ul
  Ret: 5.2%
  WBC: 128.4 x10_2/uL
  KIDNEY_L: 1.3 g
  KIDNEY_R: 1.4 g
  KIDNEY_TOTAL: 2.7 g
  LIVER: 18.1 g
  A/G: 0.8
  ALP: 2097.8 IU/L
  ALT: 39.6 IU/L
  AST: 66 IU/L
  BUN: 17.2 mg/dL
  CRE: 0.2 mg/dL
  Ca: 10.7 mg/dL
  Cl: 102.8 meq/L
  DBIL: 0.018 mg/dL
  GLC: 193 mg/dL
  IP: 7.6 mg/dL
  K: 4 meq/L
  LDH: 94.4 IU/L
  Na: 141.4 meq/L
  PL: 141.4 mg/dL
  RALB: 2.7 g/dL
  TBIL: 0.044 mg/dL
  TC: 75 mg/dL
  TG: 62.4 mg/dL
  TP: 5.9 g/dL
  gamma-GTP: 0.8 IU/L
[…], time 28 day
  TERMINAL_BW: 378.6 g
  APTT: 22.4 s
  Bas: 0.4%
  Eos: 0.8%
  Fbg: 290.2 mg/dL
  Hb: 14.7 g/dL
  Ht: 42.3%
  Lym: 79.6%
  MCH: 18.5 pg
  MCHC: 34.8%
  MCV: 53.1 fL
  Mono: 2.4%
  Neu: 16.8%
  PT: 15.7 s
  Plat: 109.6 x10_4/uL
  RBC: 796.6 x10_4/ul
  Ret: 2.9%
  WBC: 135.7 x10_2/uL
  KIDNEY_L: 1.6 g
  KIDNEY_R: 1.5 g
  KIDNEY_TOTAL: 3.2 g
  LIVER: 21.7 g
  A/G: 0.8
  ALP: 1321.8 IU/L
  ALT: 33.2 IU/L
  AST: 58.8 IU/L
  BUN: 17.8 mg/dL
  CRE: 0.2 mg/dL
  Ca: 10.9 mg/dL
  Cl: 103.6 meq/L
  DBIL: 0.012 mg/dL
  GLC: 193.8 mg/dL
  IP: 7 mg/dL
  K: 4.5 meq/L
  LDH: 81.8 IU/L
  Na: 141.8 meq/L
  PL: 117.6 mg/dL
  RALB: 2.9 g/dL
  TBIL: 0.038 mg/dL
  TC: 64 mg/dL
  TG: 41.6 mg/dL
  TP: 6.4 g/dL
  gamma-GTP: 1 IU/L
